Experimental findings from patent publication US5420289A, “Substituted indole-, indene-, pyranoindole- and tetrahydrocarbazole-alkanoic acid derivatives as inhibitors of PLA2 and lipoxygenase” (American Home Products Corporation, priority 1993, dated 1995) are described below.

One assay has as its target T1, human platelet PLA2 (Homo sapiens, UniProt P14555).
T1 construct: Semi-purified human platelet acid extract PLA2; from tissue; host or cells: human platelets (semi-purified acid extract)
T1 sequence (P14555 21-144): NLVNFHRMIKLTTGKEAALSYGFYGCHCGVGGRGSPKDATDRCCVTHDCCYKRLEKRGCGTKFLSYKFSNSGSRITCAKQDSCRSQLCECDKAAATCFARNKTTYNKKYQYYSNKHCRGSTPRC
The assay is described as follows: in vitro isolated phospholipase A2 assay, human platelet PLA2 (Example 74). To be noted: read-out: % Inhibition, HP (human platelet). On the set-up: dose or concentration left out as unconfirmed. It is filed as biochemical. The protocol: (§1) The compounds of the invention are tested in an in vitro isolated phospholipase A2 assay to determine the ability of the test compounds to inhibit the release of arachidonic acid from an arachidonic acid-containing substrate by the action of phospholipase A2 enzyme from human and non-human sources.
(§2) This assay is carried out as follows:
(§3) Into a 15 mL polypropylene tube are added the following:
(§4) ^6 Two human PLA2 enzymes are used:
a) Semi-purified human platelet acid extract PLA2 (in 10 mM
sodium acetate buffer, pH 4.5). Remove protein precipitate by
centrifugation at about 2200 rpm for 10 minutes.
(§5) Incubate the 100mL reaction mixture for 10 minutes at 37° C. in a shaking water bath. The reaction is terminated by the addition of 2 mL tetrahydrofuran, followed by vortexlag. NH2 columns (100 mg/mL--Analytichem International) are conditioned with 0.5 mL tetrahydrofuran followed by 0.5 mL tetrahydrofuran/water (2 mL:0.1 mL, v/v).
(§6) The sample is loaded onto the columns and slowly drawn through them. The hydrolyzed arachidonic acid retained in the columns is eluted therefrom with 1 mL tetrahydrofuran/glacial acetic acid (2%). The arachidonic acid is transferred to scintillation vials and quantitated by b-counting analysis. A "total counts" sample is prepared by pipetting […] ^3 H-arachidonate E. coli directly into a scintillation vial to which is added 1 mL tetrahydrofuran. 10 mL aquasol (scintillation cocktail) is added to all samples. [formula]

Assay [1] has as its target T2, human synovial fluid PLA2 (Homo sapiens, UniProt P14555).
T2 sequence (P14555 21-144): T1 sequence (P14555 21-144)
The assay is described as follows: in vitro isolated phospholipase A2 assay, human synovial fluid PLA2 (Example 74). It is filed as biochemical. Set-up: inhibition / % Inhibition, HSF (human synovial fluid): dose or concentration left out as unconfirmed. To be noted: read-out: % Inhibition, HSF (human synovial fluid). The protocol:
as §1, §2, §3, §4
b) Purified human synovial fluid.
as §5, §6

The subject of assay [2] is 5-lipoxygenase in human whole blood. The assay is described as follows: inhibition of 5-lipoxygenase in human whole blood (Example 79). It is filed as cell-based. Conditions: for % Inhibition of LTB4: 25 μM; for IC50: human whole blood, read-out: IC50 (inhibition of LTB4). The protocol:
The assay of this Example measures the ability of the compounds tested to inhibit 5-lipoxygenase in human whole blood.
as §2
Blood is obtained in 50-100 ml quantities from male donors. White blood cell counts and differentials are made. Two ml of blood are placed in a 15 ml polypropylene test tube. Compounds are solubilized in dimethylsulfoxide and diluted 1:10 in 10% bovine serum albumin in phosphate buffered saline, pH 7.4 resulting in a final dimethylsulfoxide concentration of 0.1% in the blood. Then, compounds are added to the blood in a shaking water bath at 37° C. for 10 minutes prior to the addition of […] calcium ionophore (A23187; Sigma). After ionophore administration, whole blood samples are mixed and incubated for 20 minutes at 37° C. in a shaking water bath. Incubation is terminated by placing samples in an ice bath and immediately adding ethylene glycol-bis-(b-aminoethyl ether)-N,N,N',N'-tetraacetic acid (10 mM). Samples are mixed and centrifuged at 1200 × g for 15 minutes at 4° C. Preparation of samples for evaluation by RIA or ELISA is carried out by the following protocol. Plasma is removed from sample tubes, placed in 15 ml polypropylene test tubes containing 8 ml methanol, and then vortexed to precipitate protein. Samples are stored at -70° C. overnight. The next day, samples are centrifuged at 200 × g for 15 minutes at 4° C. to pellet the precipitate. Samples are dried in a Savant speed vac concentrator, reconstituted to original volume with ice cold RIA or ELISA buffer, and stored at -70° C. until assayed. The assay for eicosanoids (LTB4, T×B2, and PGE2) is performed as described by the manufacturer of the [^3 H]-RIA kit or ELISA kit (LTB4 -Amersham, TxB2 and PGE2 - Caymen Chemical).
The total eicosanoid level in 2 ml of blood is calculated and reported as ng/10^6 neutrophils. […] Drug effects are expressed as percent change from control values.
Compounds tested in vitro are solubilized in dimethylsulfoxide and diluted 1:10 in 10% bovine serum albumin in phosphate buffer saline resulting in a final dimethylsulfoxide concentration of 0.1% i n the blood.

The structures appear in SMILES notation.

Consider `Cc1c(CC(=O)O)c2cc(OCc3nc4ccccc4s3)ccc2n1Cc1ccccc1` [Example 51, 5-(2-Benzothiazolylmethoxy)-1-(phenylmethyl)-2-methyl-1H-indole-3-acetic acid], for which the results for the inhibition (on human platelet PLA2; in assay [1]) were 41% and 88%, respectively. The “% Inhibition of LTB4” value in assay [2] was 5%.
In the same order, the values of `CSc1ccc(Cn2c(C)c(CC(=O)O)c3cc(OCc4nc5ccccc5s4)ccc32)cc1` [Example 54, 5-(2-Benzothiazolylmethoxy)-1-[[4-(methylthio)phenyl]methyl]-2-methyl-1H-indole-3-acetic acid] are 2%, 44% and 11%.
For the compound `Cc1c(CC(=O)O)c2cc(OCc3csc(-c4ccccc4)n3)ccc2n1Cc1csc(-c2ccc(Cl)cc2)n1` [Example 65, 5-[(2-Phenyl-4-thiazolyl)methoxy]-1-[[2-(4-chlorophenyl)-4-thiazolyl]methyl]-2-methyl-1H-indole-3-acetic acid], the inhibition at human platelet PLA2 was found to be 85%; in assay [1], 89%. For the same compound, the “% Inhibition of LTB4” value in assay [2] was determined as 22%.
In the same order, the values of `CONC(=O)Cc1c(C)n(Cc2ccc(Cl)cc2)c2ccc(OCc3nc4ccccc4s3)cc12` [Example 47, 5-(2-Benzothiazolylmethoxy)-1-[(4-chlorophenyl)methyl]-N-methoxy-2-methyl-1H-indole-3-acetamide hemihydrate.] are 5%, 2% and 31%.
With `CCOC(=O)Cc1c(C)n(Cc2ccc(Cl)cc2)c2ccc(OCc3csc(-c4ccc(Cl)cc4)n3)cc12` [Example 68, 5-[[2-(4-Chlorophenyl)-4-thiazolyl]methoxy]-1-[(4-chlorophenyl)methyl]-2-methyl-1H-indole-3-acetic acid ethyl ester], the inhibition is 2% at human platelet PLA2 and 0% in assay [1].
As to `Cc1c(CCO)c2cc(OCc3csc(-c4ccccc4)n3)ccc2n1Cc1ccccc1` [Example 55, 5-[(2-Phenyl-4-thiazolyl)methoxy]-1-(phenylmethyl)-2-methyl-1H-indole-3-ethanol], the figures for the inhibition (at human platelet PLA2; in assay [1]) were 13% and 4%, respectively. For the same compound, in assay [2], the “% Inhibition of LTB4” value is on record as 19%.
Take `CC(=O)OCCc1c(C)n(Cc2ccccc2)c2ccc(OCc3csc(-c4ccccc4)n3)cc12` [Example 56, 5-[(2-Phenyl-4-thiazolyl)methoxy]-1-(phenylmethyl)-2-methyl-1H-indole-3-ethanol acetate ester]: the inhibition at human platelet PLA2 is 2%. The “% Inhibition of LTB4” value in assay [2] was determined as 2%.
Consider `Cc1c(CC(N)=O)c2cc(OCc3nc4ccccc4s3)ccc2n1Cc1ccc(Cl)cc1` [Example 45, 5-(2-Benzothiazolylmethoxy)-1-[(4-chlorophenyl)methyl]-2-methyl-1H-indole-3-acetamide], for which the inhibition worked out at 33% on human platelet PLA2 and 23% in assay [1].
In the same order, the values of `Cc1c(CC(=O)NOCc2ccccc2)c2cc(OCc3nc4ccccc4s3)ccc2n1Cc1ccc(Cl)cc1` [Example 48, 5-(2-Benzothiazolylmethoxy)-1-[(4-chlorophenyl)methyl]-N-(phenylmethoxy)-2-methyl-1H-indole-3-acetamide] are 4% and 54%.
In the same order, the values of `Cc1c(CC(=O)O)c2cc(OCc3csc(-c4ccccc4)n3)ccc2n1Cc1ccc(C(C)(C)C)cc1` [Example 62, 5-[(2-Phenyl-4-thiazolyl)methoxy]-1-[[4-(1,1-dimethylethyl)phenyl]methyl]-2-methyl-1H-indole-3-acetic acid hemihydrate] are 3% and 30%.
In the case of `CCOC(=O)Cc1c(C)n(Cc2ccc3ccccc3c2)c2ccc(OCc3csc(-c4ccccc4)n3)cc12` [Example 66, 5-[(2-Phenyl-4-thiazolyl)methoxy]-1-(2-naphthalenylmethyl)-2-methyl-1H-indole-3acetic acid ethyl ester], the inhibition at human platelet PLA2 is 1%; in assay [1] it was 6%.
Turning to `CCOC(=O)Cc1c(C)n(Cc2csc(-c3ccc(Cl)cc3)n2)c2ccc(OCc3csc(-c4ccccc4)n3)cc12` [Example 64, 5-[(2-Phenyl-4-thiazolyl)methoxy]-1-[[2-(4-chlorophenyl)-4-thiazolyl]methyl]-2-methyl-1H-indole-3-acetic acid ethyl ester], the inhibition came to 1% on human platelet PLA2 and 4% in assay [1].
With `Cc1c(CC(=O)N(C)O)c2cc(OCc3nc4ccccc4s3)ccc2n1Cc1ccc(Cl)cc1` [Example 49, 5-(2-Benzothiazolylmethoxy)-1-[(4-chlorophenyl)methyl]N-hydroxyl-N,2-dimethyl-1H -indole-3-acetamide], at human platelet PLA2, the inhibition stood at 6%. The inhibition in assay [1] stood at 4%. In addition, in assay [2], the “% Inhibition of LTB4” value is 61% and the IC50 was found to be 12.3 µM.
In the case of `COc1cccc(Cn2c(C)c(CC(=O)O)c3cc(OCc4csc(-c5ccccc5)n4)ccc32)c1` [Example 60, 5-[(2-Phenyl-4-thiazolyl)methoxy)-1-[[(3-methoxy)phenyl]methyl]-2-methyl-1H-indole-3-acetic acid], the inhibition at human platelet PLA2 came out at 3%; in assay [1] it was 84%. In addition, in assay [2], the “% Inhibition of LTB4” value turned out to be 35%.
Consider `Cc1c(CC(=O)O)c2cc(OCc3coc(-c4ccccc4)n3)ccc2n1Cc1ccccc1` [Example 71, 5-[(2-Phenyl-4-oxazolyl)methoxy]-1-(phenylmethyl)-2-methyl-1H-indole-3-acetic acid hemihydrate.], for which the inhibition was determined as 44% at human platelet PLA2 and 91% in assay [1].
`Cc1c(CC(=O)NO)c2cc(OCc3nc4ccccc4s3)ccc2n1Cc1ccc(Cl)cc1` [Example 46, 5-(2-Benzothiazolylmethoxy)-1-[(4-chlorophenyl)methyl]-N-hydroxyl-2-methyl-1H-indole-3-acetamide]: the figures for the inhibition (on human platelet PLA2; in assay [1]) were 13% and 48%, respectively. Moreover, the “% Inhibition of LTB4” value in assay [2] is given as 30%. Further, in assay [2], the IC50 is 14.9 µM.
Regarding `Cc1c(CC(=O)O)c2cc(OCc3csc(-c4ccccc4)n3)ccc2n1CCCc1ccccc1` [Example 63, 5-[(2-Phenyl-4-thiazolyl)methoxy]-1-(3-phenylpropyl)-2methyl-1H-indole-3-acetic acid], the inhibition was determined as 2% at human platelet PLA2 and 34% in assay [1].

The inhibition is the drop in the measured response relative to a control, in per cent. As a reminder, the IC50 is the midpoint of a concentration-inhibition curve.
